# In patent US20130237530A1, “BENZODIAZEPINE DERIVATIVES, COMPOSITIONS AND METHODS FOR TREATING COGNITIVE IMPAIRMENT” (priority 2010, published 2013):
# Entries after “also recorded” stand apart in the source; their conditions may differ. Read-outs that look alike come from different tables or passages of the source.
# What was measured:
# [1] = biological target: T1, GABAA receptors (α5β3γ2) (Homo sapiens, UniProt P18507+P28472+P31644); experiment: Potentiation of GABA EC50 current, two-electrode voltage clamp (TEVC) in Xenopus oocytes expressing GABAA α5β3γ2; assay type: cell-based; conditions: read-out: GABA α5 EC50 % potentiation
# T1 construct: myc-His (from vector pcDNA3.1 myc-His); expressed in transfected cells; host or cells: Xenopus laevis oocytes injected with cDNAs in pcDNA3.1 / pcDNA3.1 myc-His
# Description: The agonist activity of the compounds of this invention was determined by measuring their effect on GABA-gated Cl— current from Xenopus oocytes expressing GABAA α5β3γ2 subtype receptor in a two-electrode voltage clamp (TEVC) setup.
# In this study, the GABA-gated Cl^− current from oocytes expressing GABAAR α5β3γ2 subtype was measured in the TEVC setup in the presence of the test compounds. […] Upon conclusion of compound testing and successful washout, a 1.0 μM diazepam was tested and used for comparative activity on the two GABAAR subtypes.
# Other concentrations of the test compound may also be tested following the same protocol.
# Results are expressed as mean±SEM.
# [2] = system: aged-impaired (AI) rats; experiment: Radial Arm Maze (RAM) behavioral task, spatial memory retention; assay type: in vivo, rat
# Description: The effects of methyl 3,5-diphenylpyridazine-4-carboxylate on the in vivo spatial memory retention of aged-impaired (AI) rats were assessed in a Radial Arm Maze (RAM) behavioral task using vehicle control and four different dosage levels of methyl 3,5-diphenylpyridazine-4-carboxylate ([…]). RAM behavioral tasks were performed on eight AI rats. All five treatment conditions (vehicle and four dosage levels) were tested on all eight rats.
# The RAM apparatus used consisted of eight equidistantly-spaced arms. An elevated maze arm (7 cm width×75 cm length) projected from each facet of an octagonal center platform (30 cm diameter, 51.5 cm height). Clear side walls on the arms were 10 cm high and were angled at 65° to form a trough. A food well (4 cm diameter, 2 cm deep) was located at the distal end of each arm. Froot Loops™ (Kellogg Company) were used as rewards. Blocks constructed of Plexiglas™ (30 cm height×12 cm width) could be positioned to prevent entry to any arm. Numerous extra maze cues surrounding the apparatus were also provided.
# The AI rats were initially subjected to a pre-training test (Chappell et al. Neuropharmacology 37: 481-487, 1998). The pre-training test consisted of a habituation phase (4 days), a training phase on the standard win-shift task (18 days) and another training phase (14 days) in which a brief delay was imposed between presentation of a subset of arms designated by the experimenter (e.g., 5 arms available and 3 arms blocked) and completion of the eight-arm win-shift task (i.e., with all eight arms available).
# In the habituation phase, rats were familiarized to the maze for an 8-minute session on four consecutive days. In each of these sessions, food rewards were scattered on the RAM, initially on the center platform and arms and then progressively confined to the arms. After this habituation phase, a standard training protocol was used, in which a food pellet was located at the end of each arm. Rats received one trial each day for 18 days. Each daily trial terminated when all eight food pellets had been obtained or when either 16 choices were made or 15 minutes had elapsed. After completion of this training phase, a second training phase was carried out in which the memory demand was increased by imposing a brief delay during the trial. At the beginning of each trial, three arms of the eight-arm maze were blocked. Rats were allowed to obtain food on the five arms to which access was permitted during this initial “information phase” of the trial. Rats were then removed from the maze for 60 seconds, during which time the barriers on the maze were removed, thus allowing access to all eight arms. Rats were then placed back onto the center platform and allowed to obtain the remaining food rewards during this “retention test” phase of the trial. […]
# [3] = biological target: T2, GABAA α5 receptor (Rattus norvegicus, UniProt P18508+P19969); experiment: in vivo; assay type: in vivo, Long Evans rats; conditions: for effect on Ro 15-4513 binding in hippocampus: 0.01-10 mg/kg; for dose dependence of GABAA α5 receptor occupancy: administered intravenously
# T2 construct: from tissue; host or cells: rat brain in vivo; hippocampus compared with cerebellum
# Source text: (§1) Food and water were available ad libitum.
# [4] = system: GABAA α5 receptor; experiment: in vivo; assay type: in vivo, Long Evans rats; conditions: i.v.; for effect on Ro 15-4513 binding/levels in cerebellum: 0.01-10 mg/kg
# Source text: as §1
# [5] = in vivo; assay type: in vivo, Long Evans rats; conditions: for concentration at 35 min: male, young Long Evans rats
# Description: as §1
# For plasma exposures, blood samples were centrifuged at 14000 rpm for 16 minutes. After centrifuging, 50 ul of supernatant (plasma) from each sample was added to 200 μl of acetonitrile plus 0.1% formic acid. […] Samples were sonicated for 5 minutes in an ultrasonic water bath, followed by centrifugation for 30 minutes, at 16000 RPM. 100 ul of supernatant was removed from each sample vial and placed in a new glass auto sample vial, followed by the addition of 300 μl of sterile water (pH 6.5).
# Additional studies were conducted in aged Long-Evans rats in order to determine the exposures at the behaviorally relevant doses in the cognition studies. Exposure in young Long-Evans rats was also determined to bridge with the receptor occupancy studies that were conducted in young Long-Evans rats. Exposures in young and aged Long-Evans rats were relatively similar (Table 3, FIG. 4).
# [6] = biological target: α5-containing GABAA R (Homo sapiens, UniProt P18507+P31644); conditions: (EC20); van Niel et al. J. Med. Chem. 2005; cited from earlier work
# [7] = in vivo; assay type: in vivo, Long Evans rats; conditions: male, Long Evans, rat, iv, tracer 1 μg/kg, i.v., after vehicle administration
# Source text: as §1
# [8] = system: aged-impaired (AI) rats; experiment: Morris water maze behavioral task, ICV infusion; assay type: in vivo, rat; conditions: 100 μg ICV
# Description: The effects of 6,6 dimethyl-3-(3-hydroxypropyl)thio-1-(thiazol-2-yl)-6,7-dihydro-2-benzothiophen-4(5H)-one on the in vivo spatial memory retention of aged-impaired (AI) rats were assessed in a Morris water maze behavioral task. A water maze is a pool surrounded with a novel set of patterns relative to the maze.
# Cognitively impaired aged rats were implanted unilaterally with a cannula into the lateral ventricle. Stereotaxic coordinates were 1.0 mm posterior to bregma, 1.5 mm lateral to midline, and 3.5 mm ventral to the skull surface. After about a week of recovery, the rats were pre-trained in a water maze for 2 days (6 trials per day) to locate a submerged escape platform hidden underneath the surface of the pool, in which the escape platform location varied from day to day. No intracerebroventricular (ICV) infusion was given during pre-training
# After pre-training, rats received ICV infusion of either 100 μg 6,6 dimethyl-3-(3-hydroxypropyl)thio-1-(thiazol-2-yl)-6,7-dihydro-2-benzothiophen-4(5H)-one (n=6) in 5 μl DMSO or vehicle DMSO (n=5) 40 min prior to water maze training and testing. Training consisted of 8 trials per day for 2 days where the hidden escape platform remained in the same location. Rats were given 60 seconds to locate the platform with a 60 seconds inter-trial interval. The rats were given a probe test (120 seconds) 24 hr after the end of training where the escape platform was removed. During the training, there were 4 blocks, where each block had 4 training trials.
# During a test trial 24 hr after training, the escape platform was removed. The search/swim pattern of the rats was used to measure whether the rats remember where the escape platform was located during pre-trial training in order to test for the long-term memory of the rats. In this trial, “target annulus” is a designated area 1.5 times the size of the escape platform around the area where the platform was located during pre-trial training “Opposite annulus” is a control area of the same size as the size of the target annulus, which is located opposite to the target annulus in the pool. If the rats had good long term memory, they would tend to search in the area surrounding the location where the platform was during the pre-trial training (i.e., the “target” annulus; and not the “opposite” annulus). “Time in annulus” is the amount of time in seconds that the rat spent in the target or opposite annulus area. “Number (#) of crossings” in annulus is the number of times the rat swam across the target or opposite annulus area.
# [9] = dose increase from 1 to 10 mg/kg, i.v.
# [10] = probe test 24 hr after training
# T1 sequence (P31644 32-462): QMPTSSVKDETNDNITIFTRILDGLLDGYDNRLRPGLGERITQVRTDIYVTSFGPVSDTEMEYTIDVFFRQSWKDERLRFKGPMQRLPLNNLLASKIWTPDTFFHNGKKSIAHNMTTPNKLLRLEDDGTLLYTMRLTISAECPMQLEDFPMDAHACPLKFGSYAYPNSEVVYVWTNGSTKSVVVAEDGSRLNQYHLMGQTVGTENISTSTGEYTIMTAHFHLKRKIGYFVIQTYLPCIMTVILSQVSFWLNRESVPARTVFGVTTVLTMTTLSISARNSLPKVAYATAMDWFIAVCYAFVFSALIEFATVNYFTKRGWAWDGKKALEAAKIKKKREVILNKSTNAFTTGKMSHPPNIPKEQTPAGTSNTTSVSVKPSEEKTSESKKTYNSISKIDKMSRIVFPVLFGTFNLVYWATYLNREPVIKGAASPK
# T1 sequence (P28472 26-473): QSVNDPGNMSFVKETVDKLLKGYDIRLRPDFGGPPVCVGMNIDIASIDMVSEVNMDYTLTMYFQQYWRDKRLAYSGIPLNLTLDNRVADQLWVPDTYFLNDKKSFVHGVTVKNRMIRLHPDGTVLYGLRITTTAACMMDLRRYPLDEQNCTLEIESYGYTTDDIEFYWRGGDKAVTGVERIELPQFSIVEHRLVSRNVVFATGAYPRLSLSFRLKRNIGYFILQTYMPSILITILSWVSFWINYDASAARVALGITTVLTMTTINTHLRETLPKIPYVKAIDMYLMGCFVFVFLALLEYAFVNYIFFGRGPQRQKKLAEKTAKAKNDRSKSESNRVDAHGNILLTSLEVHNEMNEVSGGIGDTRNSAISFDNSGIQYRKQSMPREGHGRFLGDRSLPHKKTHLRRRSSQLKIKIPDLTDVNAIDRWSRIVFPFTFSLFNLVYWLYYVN
# T1 sequence (P18507 40-475): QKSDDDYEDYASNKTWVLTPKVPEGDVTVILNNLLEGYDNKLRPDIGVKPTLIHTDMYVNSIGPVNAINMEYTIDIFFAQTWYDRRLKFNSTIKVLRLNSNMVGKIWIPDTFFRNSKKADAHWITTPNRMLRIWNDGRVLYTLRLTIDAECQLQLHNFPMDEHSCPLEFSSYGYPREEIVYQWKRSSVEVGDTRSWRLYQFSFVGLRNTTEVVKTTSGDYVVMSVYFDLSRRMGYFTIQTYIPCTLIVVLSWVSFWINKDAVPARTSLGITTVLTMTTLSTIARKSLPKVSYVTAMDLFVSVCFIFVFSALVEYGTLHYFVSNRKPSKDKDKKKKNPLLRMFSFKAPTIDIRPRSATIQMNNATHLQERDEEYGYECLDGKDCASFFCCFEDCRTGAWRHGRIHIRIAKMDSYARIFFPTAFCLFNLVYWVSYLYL
# T2 sequence (P19969 32-464 limits assumed): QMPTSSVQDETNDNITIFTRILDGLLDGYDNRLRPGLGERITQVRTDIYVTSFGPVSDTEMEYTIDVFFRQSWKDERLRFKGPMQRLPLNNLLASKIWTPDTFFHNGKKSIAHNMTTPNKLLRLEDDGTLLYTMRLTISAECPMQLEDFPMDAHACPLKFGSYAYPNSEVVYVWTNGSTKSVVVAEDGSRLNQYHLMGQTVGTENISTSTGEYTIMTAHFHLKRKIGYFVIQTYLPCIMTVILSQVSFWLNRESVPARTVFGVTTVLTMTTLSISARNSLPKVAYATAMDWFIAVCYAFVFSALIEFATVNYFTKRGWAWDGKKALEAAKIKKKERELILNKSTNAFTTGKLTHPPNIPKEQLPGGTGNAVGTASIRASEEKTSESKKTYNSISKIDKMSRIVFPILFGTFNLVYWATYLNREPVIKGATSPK
# T2 sequence (P18508 39-466): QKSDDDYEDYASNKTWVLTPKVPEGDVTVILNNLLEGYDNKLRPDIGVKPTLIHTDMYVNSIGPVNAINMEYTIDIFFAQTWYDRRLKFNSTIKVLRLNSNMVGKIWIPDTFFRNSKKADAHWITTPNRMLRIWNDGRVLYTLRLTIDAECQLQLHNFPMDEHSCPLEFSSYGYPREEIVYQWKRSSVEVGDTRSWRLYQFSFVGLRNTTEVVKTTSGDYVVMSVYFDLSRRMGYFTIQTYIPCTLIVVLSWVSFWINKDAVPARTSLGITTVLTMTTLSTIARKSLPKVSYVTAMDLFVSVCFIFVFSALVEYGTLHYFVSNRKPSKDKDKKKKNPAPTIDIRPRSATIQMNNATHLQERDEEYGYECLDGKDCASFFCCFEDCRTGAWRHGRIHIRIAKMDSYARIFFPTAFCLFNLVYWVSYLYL
# Sequence of α5-containing GABAA R (P31644 32-462): as the sequence (P31644 32-462) above
# Sequence of α5-containing GABAA R (P28472 26-473 partner): as the sequence (P28472 26-473) above
# Sequence of α5-containing GABAA R (P18507 40-475): as the sequence (P18507 40-475) above
structure (smiles),measurement,setting,value
CCN(CC)C(=O)c1ncn2c1Cn1nnc(C)c1-c1cc(OC)ccc1-2 [Compound 2],activation at 10 µM,[1],6.2%
CCc1nnn2c1-c1cc(OC)ccc1-n1cnc(C(=O)N(CC)CC)c1C2 [Compound 7],activation at 1 µM,[1],11.1%
"COC(=O)c1c(-c2ccccc2)cnnc1-c1ccccc1 [methyl 3,5-diphenylpyridazine-4-carboxylate]",average no. of errors ± SEM in retention test,"[2]; 3 mg/kg i.p., two-hour delay RAM, AI rats",1.31±0.40
same,memory performance relative to vehicle control,"[2]; 3 mg/kg i.p., two-hour delay RAM, t(7)=4.233, p=0.004",significantly improved memory performance
same,effect on Ro 15-4513 binding in hippocampus,[3]; i.v.,blocked the binding of Ro154513 in the hippocampus; also recorded: dose-dependently reduced Ro 15-4513 binding in hippocampus
same,dose dependence of GABAA α5 receptor occupancy,[3],dose-dependent increase
same,effect on Ro 15-4513 binding/levels in cerebellum,[4],did not affect binding of Ro15413 in the cerebellum; also recorded: without affecting cerebellum levels of Ro 15-4513
same,Kp,"[5]; Long Evans, rat, in vivo, read-out: brain/plasma ratios",> 1
same,increase in hippocampal exposure,"[5]; dose increase from 0.1 to 1 mg/kg, i.v.",12 fold
same,increase in hippocampal exposure,[5]; [9],~5 fold
same,increase in plasma exposure,[5]; [9],12 fold
same,concentration at 35 min,"[5]; Long Evans, rat, in vivo, 0.1 mg/kg, i.v., read-out: Hippocampus exposure (SEM)",14.6 ng/g
same,concentration at 35 min,"[5]; Long Evans, rat, in vivo, 1 mg/kg, i.v., read-out: Hippocampus exposure (SEM)",180 ng/g
same,concentration at 35 min,"[5]; Long Evans, rat, in vivo, 1 mg/kg, i.v., read-out: Plasma exposure (SEM)",62.8 ng/mL
same,concentration at 35 min,"[5]; Long Evans, rat, in vivo, 10 mg/kg, i.v., read-out: Hippocampus exposure (SEM)",947 ng/g
same,concentration at 35 min,"[5]; Long Evans, rat, in vivo, 10 mg/kg, i.v., read-out: Plasma exposure (SEM)",764 ng/mL
same,α5 in vitro efficacy,[6],+27
CCOC(=O)c1ncn2c1CN(C)C(=O)c1cc(N=[N+]=[N-])ccc1-2 [Ro 15-4513],concentration at 20 min,"[7]; cerebellum, read-out: levels of Ro 15-4513 in cerebellum",0.36 ± 0.02 ng/g
same,concentration at 20 min,"[7]; hippocampus, read-out: levels of Ro 15-4513 in hippocampus",1.93 ± 0.05 ng/g
same,higher levels in hippocampus compared with cerebellum,"[4]; tracer 1 μg/kg, after vehicle administration",> 5 fold
CCOC(=O)c1ncn2c1Cn1nnc(C)c1-c1cc(Cl)ccc1-2 [Compound 9],activation at 1 µM,[1],8.3%
"CCOC(=O)c1ncn2c1Cn1c(C)nnc1-c1cc(OC)ccc1-2 [ethyl 3-methoxy-7-methyl-9H-benzo[f]imidazo[1,5-a][1,2,4]triazolo[4,3-d][1,4]diazepine-10-carboxylate]",memory performance relative to vehicle control,"[2]; 3 mg/kg, four-hour delay RAM, t(7)=4.13, p=0.004, or t(7)=3.08, p=0.018",significantly improved memory performance
same,memory performance relative to vehicle control,"[2]; 10 mg/kg, four-hour delay RAM, t(7)=2.82, p=0.026",significantly improved memory performance
same,effect on Ro 15-4513 binding in hippocampus,[3]; i.v.,blocked the binding of Ro154513 in the hippocampus; also recorded: reduced Ro 15-4513 binding in hippocampus
same,GABAA α5 receptor occupancy,"[3]; 10 mg/kg, i.v.",> 90%
same,dose dependence of GABAA α5 receptor occupancy,[3],dose-dependent
same,effect on Ro 15-4513 binding/levels in cerebellum,[4],did not affect binding of Ro15413 in the cerebellum; also recorded: without affecting cerebellum levels of Ro 15-4513
"CC1(C)CC(=O)c2c(SCCCO)sc(-c3nccs3)c2C1 [6,6 dimethyl-3-(3-hydroxypropyl)thio-1-(thiazol-2-yl)-6,7-dihydro-2-benzothiophen-4(5H)-one]",learning of the water maze task,[8],improved the learning of the water maze task
same,long-term memory in the water maze task,[8],improved the long-term memory
same,time to find the escape platform (escape latency),[8]; beginning of training (block 1),about 24 seconds
same,time to find the escape platform (escape latency),[8]; end of training (block 4),about 9.6 seconds
same,number of crossings of target annulus vs opposite annulus,[8]; [10],crossed the “target annulus” more often
same,time in target annulus vs opposite annulus,[8]; [10],spent significantly more time in the target annulus
